These results are taken from paper PMC5905968, “Evaluation of the fusion inhibitor P3 peptide as a potential microbicide to prevent HIV transmission in women” (PLoS ONE, 2018).

For data set [1], the system named is vaginal epithelium of BALB/c mice. Nature of the data set: BALB/c mice vaginal irritation test with histological score. Format: in vivo. Also noted: key to Epithelial lesion / Inflammatory infiltrate / Vascular congestion / Edema/fibrosis / Total Score: 0 (no change) when no injury or the observed changes were within normal range; 1 (minimum) when changes were sparse but exceeded those considered normal; 2 (light) when injuries were identifiable but with no severity; 3 (moderate) for significant injury that could increase in severity; 4 (very serious) for very serious injuries that occupy most of the analyzed tissue. The following applies: for Edema/fibrosis / Epithelial lesion / Inflammatory infiltrate / Vascular congestion / Total Score: 3% N9 intravaginally, 7 days (irritation control); for Total Score: sum of the four lesion scores. As to the method: Female BALB/c mice (6–8 weeks-old) (Charles River Laboratories, Wilmington, MA) were pretreated subcutaneously with 2mg of medroxyprogesterone acetate (Depo-Provera; Pfizer, NY, USA) in PBS (Lonza, Verviers, Belgium). After five days, 30μl of test formulation with different doses of P3 diluted in PBS was applied intravaginally daily for 7 days by vaginal gavage to animals previously anesthetized with isoflurane (Forane, Abbott, Madrid). Controls included mice that received PBS (placebo group) and 3% nonoxynol-9 (N9) in PBS (irritation control group). On the eighth day, mice were sacrificed and genital tract tissue were extracted and fixed in 4% paraformaldehyde for histological analysis. The animals were distributed in groups of three mice each: group placebo only treated with PBS (1–3), group A treated with dose of 0.06mg/day ([…]) of P3 in PBS (4–6), group B treated with dose of 0.2mg/day (1522.7 μM) of P3 in PBS (7–9), group C treated with dose of 0.4mg/day (3045.3 μM) of P3 in PBS (10–12) and group irritation control treated with 3% N9 in PBS (13–15).
The presence of histological lesions in the mouse vaginas was evaluated with hematoxylin-eosin staining. Samples were embedded in paraffin by submersion in increasing concentrations of ethanol in water (Rectapur, VWR, England), two baths of xylene (Analar (VWR, England) and another of paraffin, before being placed in a paraffin mold. Subsequently, they were cut using a semimotorized microtome (RM2145 Leica, Germany) and processed for staining. For dewaxing, samples were submersed into two baths of xylene solution (10 min) and three baths in descending order of ethanol (100%, 90% and 70%) (5 min), before being stained with hematoxylin (Merck, Germany) for 5 min and eosin (Merck, Germany) for another 5 min. Post-eosin staining dehydration was performed with passages in increasing concentrations of ethanol (70%, 90% and 100%) and a bath of xylene solution. Finally, they were mounted with D.P.X. (Prolabo, VWR, Spain).
The existence of injury in vaginal epithelium, inflammatory infiltrate, vascular congestion and/or edema in the submucosa was evaluated in each biological sample. The values (score) assigned for each of these lesions were: 0 (no change) when no injury or the observed changes were within normal range; 1 (minimum) when changes were sparse but exceeded those considered normal; 2 (light) when injuries were identifiable but with no severity; 3 (moderate) for significant injury that could increase in severity; 4 (very serious) for very serious injuries that occupy most of the analyzed tissue. These values were added up and determined the level of vaginal irritation as minimum 1–4, average 5–8, moderate 9–11 and severe 12–16 [34].

For data set [2] the following is noted: at temperatures higher than 40 °C; cited from earlier work. As to the method: Microbicides must be stable at 37°C for a long period of time since it is the body temperature, and at 65 °C since some manufacturing processes may require high temperatures. Stability at room temperature or at 4 °C is also important since the storage at these temperatures is easier for the user and more affordable than at -20 °C. No statistically significance differences were observed on the anti-HIV-1 activity of P3 peptide stored at 25, 37 and 65 °C for a period of a week. The stability of P3 under different temperatures is much better than other peptide-based microbicide candidates or d ...

As for `CCCCCCCCCc1ccc(OCCOCCOCCOCCOCCOCCOCCOCCOCCO)cc1` [N9, nonoxynol-9, reference compound], the “level of irritation of the vaginal wall” value in data set [1] (3% N9 in PBS daily for 7 days, three samples) is listed as “average (average 5–8)”. For the same compound, in data set [1] (mouse 13), the Edema/fibrosis was 0, the Epithelial lesion stood at 3, the Inflammatory infiltrate is reported as 3 and the Vascular congestion turned out to be 2. For the same compound, the “Total Score” value in data set [1] (mouse 13) is listed as 8. Further, in data set [1] (mouse 14), the Edema/fibrosis amounted to 0, the Epithelial lesion is on record as 2, the Inflammatory infiltrate amounted to 3 and the Vascular congestion worked out at 2. Also, the “Total Score” value in data set [1] (mouse 14) came out at 7. Besides, in data set [1] (mouse 15), the Edema/fibrosis was 0, the Epithelial lesion was found to be 3, the Inflammatory infiltrate worked out at 3 and the Vascular congestion amounted to 2. For the same compound, the “Total Score” value in data set [1] (mouse 15) is 8.
On to Spantide II, for which, in data set [2], the thermal stability result is “not stable”.
